In US9957311B2, “Surface-binding peptide” (TIKOMED AB, priority 2013, dated 2018):
Entries after “also recorded” stand apart in the source; their conditions may differ.

Experiments:
[1] = Binding of fluorescent IP-10 short peptides to titanium foils, fluorescence microscope (Experiment 3); conditions: FITC-labeled peptides 50 μg/ml, 8×8 mm Ti foils, 3 h room temperature, FIG. 7
Description: 5 mg of the different peptides (Table 3), which were labeled with fluorescein isothiocyanate, were dissolved with 1 ml of water with molecular biology degree (Sigma-Aldrich, St. Louis, Mo., USA). Working solutions of the different peptides were diluted further with PBS (PAA Laboratories GmbH, Pasching, Austria) to 50 μg/ml. Briefly, 500 μl of peptide solution was incubated with 8×8 mm Ti foils (Sigma Aldrich, thickness 0.127 mm, 99.7%, cut into 8×8 mm^2 samples) in an orbital shaker (IKA Vibrax VXR basic, Staufen, Germany) for 3 h at room temperature. Experiments were run in duplicate.
Ti foils were rinsed twice with PBS to remove unbound labeled peptides. Remaining liquid was allowed to dry and samples were put on microscope slides. […] Two images of each surface were taken.

[2] = Binding of IP-10 derived short peptides to TiO2 P25 particles, absorbance at 206 nm (Experiment 2); conditions: Experiment 2, 50 μg/ml peptide, 25 mg TiO2, 3 h room temperature
Description: 5 mg of eleven peptides (Table 2) were dissolved with 1 ml of water for molecular biology (Sigma-Aldrich, St. Louis, Mo., USA). Working solutions of the different peptides were diluted further with phosphate buffered saline (PBS) (PAA Laboratories GmbH, Pasching, Austria) to 50 μg/ml. 25 mg of TiO2 (P25 from Degussa and P90 from Sigma-Aldrich) were used for the studies. Briefly, 250 μl of peptide solution was incubated with 25 mg of TiO2 powder with different particle size (P25 and P90) in an orbital shaker (IKA Vibrax VXR basic, Staufen, Germany) for 3 h at room temperature. Different controls were used and processed in parallel with the other samples: solutions with peptides alone, PBS alone and P25/P90 in PBS. After this time, all the samples were centrifuged at 13.000×g for 3 min at 20° C. 100 μl of the supernatant solution was carefully collected and placed in a 96-well UV plate and read with PowerWave™ microplate spectrophotometer from BioTek. Absorbances at 206 nm and also spectrum curves for each sample were collected and analysed.

[3] = Binding of IP-10 derived peptides to TiO2 P90, absorbance at 206 nm (Experiment 1); conditions: 50 μg/mL peptide in PBS, 20 mg TiO2 P90, 3 h room temperature, FIG. 3
Description: This experiment was conducted to find the exact region of the IP-10 molecule that binds to titanium. In this experiment the effect of TiO2 (diameter ˜14 nm, product number P 90, Aerosil Evonic Ind.) on peptides synthesized from the IP-10 molecule by absorbance measurements using a Spektro U29-10 Hitachi spectrophotometer.
Seventeen different peptides having sequences of various portion of IP-10 were dissolved in water and thereafter diluted to working solution (50 μg/mL) in phosphate buffered saline (PBS), see Table 1 and FIG. 2.
The absorbance of the peptides bound to TiO2 surfaces P90 from Sigma-Aldrich) were measured at 206 nm using a Spektro U29-10 Hitachi spectrophotometer. Briefly, 20 mg TiO2 (P90) was incubated with 250 μl of peptide solution. After 3 h incubation on a shaking device in room temperature, with vortexing every hour, the samples were centrifuged (13 000×g, 3 min) and the supernatant was collected. As a negative control, PBS alone was used and positive control was peptide solution alone. Every sample was made in double and the experiments were repeated.

integrin β3 = experiment: Immunocytochemistry of integrin β3 in MC3T3-E1 cells on peptide-coated Ti; type: cell-based; conditions: FIG. 12; for integrin β3 staining: after 72 h of culture
Description: (§1) Under aseptic conditions, implants were immersed in a 3:7 (v/v) HNO3-DI water solution for 30 min at room temperature. Then, they were rinsed with milliQ water and placed in a covered milliQ water bath for 24 h. Implants were dried with N2 and were placed in a 96-well plates. Then, 200 μl of 50 μg/ml peptide solutions in PBS were added to each implant. Adsorption took place for 24 h at 37° C. in a humidified atmosphere. After 24 h peptide solutions were collected and surfaces were washed with 200 μl of PBS and air-dried in order to perform in vitro experiments.
MC3T3-E1 cells were routinely cultured at 37° C. in a humidified atmosphere of 5% CO2, and maintained in α-MEM supplemented with 10% FBS and antibiotics (50 IU penicillin/ml and 50 μg streptomycin/ml). 7.0×10^3 cells were seeded on the peptide-coated implants. Trypan blue stain was used to determine total and viable cell number. The same number of cells was cultured in parallel in plastic culture plates in the experiment. All experiments were performed after 4 passages of the MC3T3-E1 cells.
Cells grown for 24 and 72 h on the surfaces were fixed for 15 min with 4% formaldehyde in PBS at room temperature. Cells were incubated with 0.1% Triton X-100 for 5 min, 1% bovine serum albumin for 30 min and then with anti-integrin beta-3 antibody for 1 h at 1:50 dilution in PBS. Then, a Cy3-conjugated goat anti-rabbit IgG was used as secondary antibody for 1.5 h at 1:200 dilution in PBS. For actin cytoskeleton visualization, cells were stained with phalloidin-FITC 5 μg/mL in PBS for 30 min. Cells were washed with PBS and coin-shaped samples were placed on slides. Finally, a drop of Fluoroshield with DAPI was added and cover glasses were mounted on the samples. Two samples of each group were used to perform the experiment and two images of each sample were taken with the confocal microscope (Leica DMI 4000B equipped with Leica TCS SPE laser system).

[4] = Binding of IP-10 derived short peptides to nanoparticles, absorbance at 206 nm (Experiment 7); conditions: 50 μg/ml peptide, 3 h room temperature, FIG. 14; for binding to TiO2 nanoparticles: 25 mg TiO2 21 nm; for binding to SiO2 particles: 25 mg SiO2 10-20 nm
Description: Lyophilized peptides were dissolved with water (Sigma, molecular biology degree) to a concentration of 5 mg/ml (Table 6). Working solutions of the different peptides were diluted further with PBS (PAA laboratories) to 50 μg/ml. 25 mg of TiO2 (Titanium(IV) oxide nanopowder, 21 nm particle size, catalog number 718467, Sigma-Aldrich), SiO2 (Silicon dioxide nanopowder, 10-20 nm particle size, catalog number […], Sigma-aldrich), MgO (Magnesium oxide nanopowder, <50 nm particle size, catalog number 549649, Sigma-Aldrich) were used for the studies. Briefly, 250 μl of peptide solution containing 50 μg/ml was incubated with 25 mg of the materials in an orbital shaker for 3 h at room temperature. Different controls were used and processed in parallel with the other samples: solutions with peptides alone, PBS alone and TiO2/SiO2/MgO in PBS. After this time, all the samples were centrifuged at 13.000×g for 3 min at 20° C. 100 μl of the supernatant solution was carefully collected and placed in a 96-well UV plate and read with PowerWave™ microplate spectrophotometer from BioTek. Absorbances at 206 nm and also spectrum curves for each sample were collected and analyzed.

MC3T3-E1 cells = experiment: DNA quantification (cell number) of cells on peptide-coated Ti; type: cell-based; conditions: 48 h culture on Ti coated with 50 μg/ml peptide, FIG. 9
Description: as §1, with “Absorption” for “Adsorption”, “cell” for “in vitro”, “experiments. The surfaces were denoted Ti (uncoated Ti), P1 (Ti coated with IP10-RGD), P2 (Ti coated with IP10mut-RGD), P3 (Ti coated with IP10-RGDmut) and P4 (Ti coated with IP10mut-RGDmu).” for “experiments.”
MC3T3-E1 cells were routinely cultured at 37° C. in a humidified atmosphere of 5% CO2, and maintained in α-minimum essential medium (α-MEM) supplemented with 10% fetal bovine serum (FBS) and antibiotics (50 IU penicillin/ml and 50 μg streptomycin/ml). 7.0×10^3 cells were seeded on the peptide-coated implants. Trypan blue stain was used to determine total and viable cell number. The same number of cells was cultured in parallel in plastic culture plates in the experiment. All experiments were performed after 15 passages of the MC3T3-E1 cells.
Culture media was removed from wells and plates were frozen at −80° C. until the experiment was carried out. At the day of analysis, 100 μl of distilled water were added to each well. Plates were incubated for 1 hour at room temperature. Again, plates were frozen at −80° C. to lysate cells. Plates were thawed until reaching room temperature and 100 μl of Hoechst 33258 at 20 μg/ml in THE buffer were added. Then, 200 μl aliquots were transferred to 96-well fluorescence plates and a spectrophotometer was set to record fluorescence. Relative fluorescence units were correlated with the cell number using a linear standard curve.

Substance: FCSEPKKKMT (IP-10 derived peptide linked to randomized tag sequence) [IP10b]
- signal from the fluorescent peptides bound to Ti [1]: lower than for IP10 but higher than for IP10r

Substance: ATMKK (listed as Homo sapiens) [IP1]
- binding to TiO2 particles (in words) [2]: very strong binding

Substance: PESCF (Randomized tag sequence) [IP10r]
- signal from the fluorescent peptides bound to Ti [1]: lowest

Substance: IIATMKKKGEKRCLNPESKA (listed as Homo sapiens) [Peptide 5]
- binding to TiO2 P90 (percentage of peptides absorbed, ranking) [3]: bound most

Substance: MTTTGEGGGGGGGGRGDS (Mutated IP-10 derived peptide connected to RGD motif via poly-G-linker) [Peptide P2]
- integrin β3 staining (integrin β3): no clear staining

Substance: KKKGE (listed as Homo sapiens) [IP4]
- binding to TiO2 particles (in words) [2]: very strong binding
- binding to TiO2 nanoparticles [4]: higher binding

Substance: MKKKG (listed as Homo sapiens) [IP3]
- binding to TiO2 particles (in words) [2]: very strong binding
- binding to TiO2 nanoparticles [4]: higher binding

Substance: KRCLN (listed as Homo sapiens) [IPE]
- binding to SiO2 particles [4]: binding
- binding to TiO2 nanoparticles [4]: binding

Substance: KKGEI (IP-10 derived peptide) [IP5]
- binding to TiO2 particles (in words) [2]: very strong binding

Substance: TMKKK (listed as Homo sapiens) [IP2]
- binding to TiO2 particles (in words) [2]: very strong binding; also recorded: best binding sequence
- binding to TiO2 nanoparticles [4]: higher binding

Substance: MTTTGEGGGGGGGGRGES (Mutated IP-10 derived peptide connected to mutated RGD motif via poly-G-linker) [Peptide P4]
- integrin β3 staining (integrin β3): no clear staining
- number of cells (DNA quantification) (MC3T3-E1 cells): lowest
- number of cells (DNA quantification) (MC3T3-E1 cells; listed as double mutant peptide sequence): lastly

Substance: IKNLLKAVSKERSKRSP (listed as Homo sapiens) [Peptide 6]
- binding to TiO2 P90 (percentage of peptides absorbed, ranking) [3]: bound most

Substance: TMKKKPESCF (IP-10 derived peptide linked to randomized tag sequence) [IP10a]
- signal from the fluorescent peptides bound to Ti [1]: lower than for IP10 but higher than for IP10r

Substance: MKKKGEGGGGGGGGRGES (IP-10 derived peptide connected to mutated RGD motif via poly-G-linker) [Peptide P3]
- integrin β3 signal (integrin β3; after 24 h of culture): showed integrin β3 signal
- integrin β3 staining (integrin β3): no clear staining; also recorded: disappeared

Substance: RCLNP (listed as Homo sapiens) [IPF]
- binding to SiO2 particles [4]: binding
- binding to TiO2 nanoparticles [4]: binding
